Data reported in patent US20210353648A1, “GRAPIPRANT UNIT DOSAGE FORMS” (Arrys Therapeutics, Inc., priority 2018, published 2021).
Read-outs that look alike come from different tables or passages of the source.

Assay: Phase 1 single ascending dose study of grapiprant OPC: pharmacokinetics
Format: in vivo, human
Settings: for AUC(0-t) / Cmax / AUC(0-inf) / Tmax / half-life: human, oral, serum
Experimental: Eligible subjects were to be enrolled into 8 sequential cohorts, corresponding to the planned dose levels of 1 mg, 3 mg, 10 mg, 30 mg, 100 mg, 300 mg, 600 mg, and 1000 mg. […] After determining a maximum tolerated dose (MTD), or after completing the highest dose cohort if a MTD was not determined, Cohort 11 would be enrolled to increase the number of subjects evaluated at the MTD (or the highest dose).
In each dosing period, subjects were confined to the Clinical Research Unit (CRU) for approximately 60 hours (from approximately 36 hours predose through 24 hours postdose), and were instructed to return to the study site at 48 hours postdose for collection of blood samples for safety and pharmacokinetic evaluations. Subjects had triplicate ECG measurements made at select time-points on Day 0 (to provide a time-matched baseline) and through 24 hours postdose. Continuous cardiac monitoring by telemetry was performed for 12 hours postdose (or up to 24 hours, if warranted, based on the pharmacokinetic data). Creatine phosphokinase (CPK; total CPK and CPK-MB isoenzyme) and troponin I levels were monitored predose and at 12 and 24 hours postdose. In each dosing period, blood samples were collected predose and at 0.5, 1, 1.5, 2, 2.5, 3, 4, 6, 8, 12, 16, 24, and 48 hours postdose for pharmacokinetic evaluation. Fecal occult blood was monitored predose and through 48 hours postdose. Urine was collected through 24 hours postdose for exploratory biotransformation analyses. Since grapiprant may be a substrate of efflux transporters, genotyping for P-gp, an efflux transporter, was also planned for this study.
Pharmacokinetics: The maximum observed serum concentration (Cmax) of grapiprant was estimated directly from raw serum concentration-time data with Tmax defined as the time of the first occurrence of Cmax. The apparent terminal elimination rate constant (kel) was estimated using least-squares regression analysis of the serum concentration-time data obtained during the terminal log-linear phase. The apparent terminal half-life (T½) was calculated as In 2/kel. Areas under the serum concentration-time curve from time 0 to the last time (Tlast) with a quantifiable concentration [AUC(Tlast)] were estimated using linear/log trapezoidal approximation. Areas under the serum concentration-time curve from time Tlast to infinity [AUC(Tlast-inf)] were estimated as Cpest/kel, where Cpest represented the estimated concentration at time Tlast based on the aforementioned regression analysis. Areas under the serum concentration-time curve from time 0 to infinity [AUC(inf)] were estimated as the sum of AUC(Tlast) and AUC(Tlast-inf). […] Individual serum concentrations of grapiprant were summarized in tabular and graphical form. Concentrations that were determined to be below the lower limit of quantification were assumed to be equal to zero for the pharmacokinetic analyses and mean concentration-time plots.
The 600 mg dose was studied in 2 separate cohorts. The second of these two cohorts was conducted to confirm safety assessments at this dose strength. For the pharmacokinetic analysis, pharmacokinetic parameters of both cohorts were pooled together and analyzed as a single group.

[1] = single 1 mg dose as OPC, fasted, healthy adults, mean
[2] = single 3 mg dose as OPC, fasted, healthy adults, mean
[3] = single 10 mg dose as OPC, fasted, healthy adults, mean
[4] = single 30 mg dose as OPC, fasted, healthy adults, mean
[5] = single 100 mg dose as OPC, fasted, healthy adults, mean
[6] = single 300 mg dose as OPC, fasted, healthy adults, mean
[7] = single 600 mg dose as OPC, fasted, healthy adults, mean
[8] = single 1000 mg dose as OPC, fasted, healthy adults, mean
[9] = single 1500 mg dose as OPC, fasted, healthy adults, mean
[10] = single 2000 mg dose as OPC, fasted, healthy adults, mean

CCc1nc2c(C)nc(C)cc2n1-c1ccc(CCNC(=O)NS(=O)(=O)c2ccc(C)cc2)cc1 [Grapiprant, N-((4-(2-ethyl-4,6-dimethyl-1H-imidazo[4,5-c]pyridin-1-yl)phenethyl)carbamoyl)-4-methylbenzenesulfonamide]
increase of mean serum exposure parameters with dose (between the 100 mg and 600 mg dose levels, OPC, fasted): greater than dose-proportional increases
AUC(0-t) [1]: 59.1 ng·h/mL
Cmax [1]: 6.59 ng/mL
AUC(0-inf) [2]: 260 ng·h/mL
AUC(0-t) [2]: 246 ng·h/mL
Cmax [2]: 23.1 ng/mL
AUC(0-inf) [3]: 917 ng·h/mL
AUC(0-t) [3]: 901 ng·h/mL
Cmax [3]: 110 ng/mL
AUC(0-inf) [4]: 2150 ng·h/mL
AUC(0-t) [4]: 2120 ng·h/mL
Cmax [4]: 262 ng/mL
AUC(0-inf) [5]: 7220 ng·h/mL
AUC(0-t) [5]: 7170 ng·h/mL
Cmax [5]: 1440 ng/mL
AUC(0-inf) [6]: 31300 ng·h/mL
AUC(0-t) [6]: 31200 ng·h/mL
Cmax [6]: 12000 ng/mL
AUC(0-inf) [7]: 92500 ng·h/mL
AUC(0-t) [7]: 92200 ng·h/mL
Cmax [7]: 45000 ng/mL
AUC(0-inf) [8]: 175000 ng·h/mL
AUC(0-t) [8]: 174000 ng·h/mL
Cmax [8]: 64300 ng/mL
AUC(0-inf) [9]: 242000 ng·h/mL
AUC(0-t) [9]: 242000 ng·h/mL
Cmax [9]: 83800 ng/mL
AUC(0-inf) [10]: 479000 ng·h/mL
AUC(0-t) [10]: 478000 ng·h/mL
Cmax [10]: 134000 ng/mL
Tmax (1 mg, single 1 mg dose as OPC, fasted, healthy adults, median, read-out: Tmax): 2.5 h
half-life (3 mg, single 3 mg dose as OPC, fasted, healthy adults, mean, read-out: T½ (converted)): 5.34 h
Tmax (3 mg, single 3 mg dose as OPC, fasted, healthy adults, median, read-out: Tmax): 3 h
half-life (10 mg, single 10 mg dose as OPC, fasted, healthy adults, mean, read-out: T½ (converted)): 5.1 h
Tmax (10 mg, single 10 mg dose as OPC, fasted, healthy adults, median, read-out: Tmax): 2 h
half-life (30 mg, cohorts with clear bi-exponential decline (30 mg and above), read-out: mean terminal phase T1/2): 6.14 to 9.41 h
half-life (30 mg, single 30 mg dose as OPC, fasted, healthy adults, mean, read-out: T½ (converted)): 6.14 h
Tmax (30 mg, single 30 mg dose as OPC, fasted, healthy adults, median, read-out: Tmax): 1 h
Tmax (100 mg, doses of 100 mg and above, OPC, fasted, read-out: individual Tmax values): 0.5 to 1 h
half-life (100 mg, single 100 mg dose as OPC, fasted, healthy adults, mean, read-out: T½ (converted)): 6.91 h
Tmax (100 mg, single 100 mg dose as OPC, fasted, healthy adults, median, read-out: Tmax): 0.75 h
half-life (300 mg, single 300 mg dose as OPC, fasted, healthy adults, mean, read-out: T½ (converted)): 7.98 h
Tmax (300 mg, single 300 mg dose as OPC, fasted, healthy adults, median, read-out: Tmax): 0.75 h
half-life (600 mg, single 600 mg dose as OPC, fasted, healthy adults, mean, read-out: T½ (converted)): 8.03 h
Tmax (600 mg, single 600 mg dose as OPC, fasted, healthy adults, median, read-out: Tmax): 0.5 h
half-life (1000 mg, single 1000 mg dose as OPC, fasted, healthy adults, mean, read-out: T½ (converted)): 9.41 h
Tmax (1000 mg, single 1000 mg dose as OPC, fasted, healthy adults, median, read-out: Tmax): 1 h
half-life (1500 mg, single 1500 mg dose as OPC, fasted, healthy adults, mean, read-out: T½ (converted)): 8.13 h
Tmax (1500 mg, single 1500 mg dose as OPC, fasted, healthy adults, median, read-out: Tmax): 0.75 h
half-life (2000 mg, single 2000 mg dose as OPC, fasted, healthy adults, mean, read-out: T½ (converted)): 8.25 h
Tmax (2000 mg, single 2000 mg dose as OPC, fasted, healthy adults, median, read-out: Tmax): 1 h
Tmax (across the dose groups, 1 mg to 2000 mg OPC, fasted, read-out: median Tmax estimates): 0.5 to 3 h
half-life (over the range of doses studied, OPC, fasted, read-out: mean terminal phase T1/2): 5.1 to 9.41 h
serum concentration-time profile (single oral dose of OPC formulation, about 1 mg to 2000 mg): rapid absorption followed by a bi-exponential decline in serum concentration
